# Test results taken from patent US20240277874A1, “FLUORESCENCE-MAGNETIC RESONANCE DUAL-MODALITY CONTRAST AGENT, PREPARATION METHOD THEREFOR AND USE THEREOF” (HAINAN POLY PHARMACEUTICAL CO., LTD., priority 2021, published 2024).
# Where two headings read alike, the source gives them in different places.
# How the values were obtained:
# ICR female mice [1] = conditions: mouse, in vivo, iv
# From the text: The maximum tolerated dose (MTD) of the contrast agent was preliminarily determined by administration to mice by tail intravenous injection.
# [2] = Longitudinal relaxation rate (r1), 0.35T nuclear magnetic resonance imaging system, IR sequence; type: physicochemical; conditions: for r1 in BSA solution(1%): bovine serum protein solution (1%, w/w); for r1 in Water: pure water
# Procedure: The longitudinal relaxation rate (r1) of the contrast agent was determined in a 0.35T small nuclear magnetic resonance imaging system using an IR […] sequence. The relaxation rates of the contrast agent in pure water and in bovine serum protein solution (1%, w/w) in different solvents are shown in Table 3 below.
# [3] = Stability of the aqueous contrast agent solution at room temperature, relative content by HPLC; type: physicochemical; conditions: aqueous solution 0.1 mg/mL
# Procedure: The aqueous solution of the contrast agent (0.1 mg/mL) was left at room temperature and its stability was measured by calibrating its relative content by the HPLC method at different time points, and the stability of the contrast agent is shown in Table 4.
# [4] = test system: liver and kidney of ICR mice; assay: Magnetic resonance T1-enhanced imaging (SE sequence) of liver and kidney after tail intravenous injection; type: in vivo; conditions: tail iv 5 mg/kg and 30 mg/kg, FIG. 1A
# Procedure: (§1) • 1. IR-820 (new indocyanine green) and 3,6,9-trioxaundecamethylenediamine (1:1-1:5 eq.) were added to the DMSO solution. And then the triethylamine as the deacid reagent was added to the mixture. The mixture reacted at 20-80° C. for 2 h. The desired product B01 was obtained after precipitation. • 2. B01 and DOTA-NHS ([…] is N-hydroxysuccinimide) (1:1-1:3 eq.) were dissolved in DMSO solution, and 1-20 equivalents of triethylamine was added to the mixture. The mixture reacted at 10-40° C. for 24 h. The desired product B02 was obtained after precipitation. • 3. B02 was reacted with 0.5-2 equivalents of gadolinium chloride hydrate in DMSO at 10-50° C. for 10 h-50 h, and the desired product PL-001 was obtained after precipitation, yield of 83%, purity of 91%. • 4. The final product was dissolved in pure water to create a solution. The product was administered to ICR mice by tail intravenous injection at doses of 5 mg/kg and 30 mg/kg, respectively. Magnetic resonance T1-enhanced imaging (SE sequence) was performed on the liver and kidney of the mice before and after the administration of the product. After the magnetic resonance imaging was completed, the livers and kidneys were removed for fluorescence imaging. […] From the figure, it can be seen that the magnetic resonance enhancement and fluorescence imaging results of the liver and kidney were basically consistent.
# [5] = test system: liver and kidney of ICR mice; assay: Fluorescence imaging of removed livers and kidneys after magnetic resonance imaging; type: in vivo; conditions: 6 hours after administration, FIG. 1C
# Procedure: as §1
# ICR female mice [6] = conditions: value marked * with footnote not given; 60 is not among the tested doses; cited from earlier work
# [7] = normal people, 20 minutes after intravenous injection; cited from earlier work
# [8] = test system: major organs of liver in situ tumor mice; assay: Tissue fluorescence of liver in situ tumor mice, small animal live imaging analyzer; type: in vivo; conditions: organs removed after magnetic resonance imaging, FIG. 4
# From the text: Liver in situ tumor mice tissue fluorescence was observed by a small animal live imaging analyzer (Perkin Elmer). After magnetic resonance imaging, the major organs of the mice were removed and observed by live imaging, and the results are shown in FIG. 4.
# [9] = test system: H22 liver in situ tumors in Balb/c mice; assay: Magnetic resonance T1-enhanced imaging of liver in situ tumors, GE 3.0T system; type: in vivo; conditions: Balb/c mice with H22 liver in situ tumor, 1 mg/mL solution, 5 mL/kg tail iv, FIG. 3
# Procedure: Magnetic resonance imaging of liver in situ tumors with a contrast agent was performed using a GE 3.0T magnetic resonance imaging system. H22 cells were inoculated in Balb/c mice through liver in-situ injection, and liver conditions were observed through magnetic resonance. After the tumor was formed, 1 mg/mL contrast agent solution (5 mL/kg) was injected through the tail intravenous, and the liver was subjected to magnetic resonance T1-enhanced imaging at different time points after the administration of the agent.
# [10] = test system: murine hepatocellular carcinoma cells H22; assay: Cell entry rate of the contrast agent by flow cytometry; type: cell-based; conditions: compared among PL-002, PL-003, PL-004 and PL-006, FIG. 2
# Procedure: The cell entry rate of the contrast agent at the cell level was determined by flow cytometers. Logarithmically grown murine hepatocellular carcinoma cells H22 were collected and spread evenly in 12-well plates, with an approximate cell number of 1.5×10^5 per well.
Structure (SMILES),MTD (ICR female mice [1]),r1 in BSA solution(1%) [2],r1 in Water [2],decomposition rate % ([3]; 0 h),decomposition rate % ([3]; 2 h),decomposition rate % ([3]; 24 h),decomposition rate % ([3]; 48 h),magnetic resonance T1-enhanced imaging of liver and kidney [4],fluorescence imaging of liver and kidney [5],MTD (ICR female mice [6]),eliminated from the blood [7],distinction of tumor from normal tissue and fluorescence intensity [8],magnetic resonance T1 enhancement of the tumor site [9],cell entry rate [10]
CC1(C)C(/C=C/C2=C(Oc3ccc(CCC(=O)NCCOCCOCCOCCNC(=O)CN4CCN(CC(=O)[O-])CCN(CC(=O)[O-])CCN(CC(=O)[O-])CC4)cc3)C(=C/C=C3/N(CCCCS(=O)(=O)O)c4ccc5ccccc5c4C3(C)C)/CCC2)=[N+](CCCCS(=O)(=O)O)c2ccc3ccccc3c21.[Gd+3] [PL-002],125 mg/kg,16.2 mM⁻¹ s⁻¹,11.8 mM⁻¹ s⁻¹,0%,<LOQ,<LOQ,<LOQ,,,,,,,
CC1(C)C(=CC=C2CCCC(C=CC3=[N+](CCCCS(=O)(=O)O)c4ccc5ccccc5c4C3(C)C)=C2NCCCOCCOCCOCCCNC(=O)CN2CCN(CC(=O)[O-])CCN(CC(=O)[O-])CCN(CC(=O)[O-])CC2)N(CCCCS(=O)(=O)O)c2ccc3ccccc3c21.[Gd+3] [PL-001],75 mg/kg,,,0%,5.9%,40.0%,65.4%,significant enhancement of liver and kidney,significant fluorescence of the liver and kidney,,,,,
CC1(C)C(/C=C/C2=C(Oc3ccc(CCC(=O)NCCOCCOCCNC(=O)CN4CCN(CC(=O)[O-])CCN(CC(=O)[O-])CCN(CC(=O)[O-])CC4)cc3)C(=C/C=C3/N(CCCCS(=O)(=O)O)c4ccc5ccccc5c4C3(C)C)/CCC2)=[N+](CCCCS(=O)(=O)O)c2ccc3ccccc3c21.[Gd+3] [PL-004],125 mg/kg,17.6 mM⁻¹ s⁻¹,14.7 mM⁻¹ s⁻¹,0%,<LOQ,<LOQ,<LOQ,,,,,,,
"CC1(C)C(/C=C/C=C/C=C/C=C2\N(CCCCS(=O)(=O)O)c3ccc4ccccc4c3C2(C)C)=[N+](CCCCS(=O)(=O)[O-])c2ccc3ccccc3c21 [ICG, Indocyanine green]",,,,,,,,,,60* mg/kg,about 97%,,,
CC1(C)C(/C=C/C2=C(Oc3ccc(CCC(=O)NCCCCCCCCCCNC(=O)CN4CCN(CC(=O)[O-])CCN(CC(=O)[O-])CCN(CC(=O)[O-])CC4)cc3)C(=C/C=C3/N(CCCCS(=O)(=O)O)c4ccc5ccccc5c4C3(C)C)/CCC2)=[N+](CCCCS(=O)(=O)O)c2ccc3ccccc3c21.[Gd+3] [PL-003],150 mg/kg,18.9 mM⁻¹ s⁻¹,15.4 mM⁻¹ s⁻¹,0%,<LOQ,<LOQ,<LOQ,,,,,tumor is distinguished from the normal tissue and has better fluorescence intensity,better enhancement effect,fastest cellular entry
